Data as given in ChEMBL document CHEMBL1201862, “PubChem BioAssay data set” (2004).
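Dose response: 5 concentrations. Exposure: 48 h. Format: 96-well plates. Endpoint: linear interpolation; highest concentration if not reached. At the GI50, growth is halved.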 The source made the active and inactive calls. Rule as the data show it: active = GI50 up to about 1.1 µM and inactive = higher.

Columns and labels:
Assay in all cases: NCI-60 cell line screen, 48 h
UACC-62 = system: UACC-62
786-0 = system: 786-0
SK-MEL-28 = system: SK-MEL-28
MDA-MB-231 = system: MDA-MB-231
OVCAR-5 = system: OVCAR-5
UACC-257 = system: UACC-257
EKVX = system: EKVX
SR = system: SR
HCT-116 = system: HCT-116
MCF7 = system: MCF7
Hs-578T = system: Hs-578T
TK-10 = system: TK-10
RXF 393 = system: RXF 393
SF-295 = system: SF-295
OVCAR-8 = system: OVCAR-8
SK-MEL-5 = system: SK-MEL-5
OVCAR-4 = system: OVCAR-4
KM12 = system: KM12
SF-539 = system: SF-539
A498 = system: A498

Compound	GI50 (UACC-62)	GI50 (786-0)	GI50 (SK-MEL-28)	GI50 (MDA-MB-231)	GI50 (OVCAR-5)	GI50 (UACC-257)	GI50 (EKVX)	GI50 (SR)	GI50 (HCT-116)	GI50 (MCF7)	GI50 (Hs-578T)	GI50 (TK-10)	GI50 (RXF 393)	GI50 (SF-295)	GI50 (OVCAR-8)	GI50 (SK-MEL-5)	GI50 (OVCAR-4)	GI50 (KM12)	GI50 (SF-539)	GI50 (A498)
O=C1c2cccc3cc([N+](=O)[O-])cc(c23)C(=O)N1O	23.9 µM (inactive)	45.2 µM (inactive)	45.8 µM (inactive)	14.2 µM (inactive)	44.1 µM (inactive)	33.7 µM (inactive)	47.9 µM (inactive)	24.5 µM (inactive)	27 µM (inactive)	24.8 µM (inactive)	38.7 µM (inactive)	25.9 µM (inactive)	33 µM (inactive)	46.1 µM (inactive)	44.5 µM (inactive)	35.6 µM (inactive)	34.1 µM (inactive)	20.6 µM (inactive)		
Cc1cc(O)c2c(c1)C(C1c3cccc(O)c3C(=O)c3c(O)cc(C)cc31)c1cccc(O)c1C2=O (stereo unspecified)	0.269 µM (active)	0.466 µM (active)	0.394 µM (active)	0.405 µM (active)	0.766 µM (active)	0.3 µM (active)	0.417 µM (active)	0.345 µM (active)	0.314 µM (active)	0.331 µM (active)	0.175 µM (active)	0.598 µM (active)	0.22 µM (active)	0.286 µM (active)	0.335 µM (active)	0.212 µM (active)	0.26 µM (active)	0.166 µM (active)	0.21 µM (active)	
O=C1C(O)=C(Cl)C(=O)c2c(O)ccc(O)c21	> 100 µM (inactive)	> 100 µM (inactive)	> 100 µM (inactive)	> 100 µM (inactive)	> 100 µM (inactive)	> 100 µM (inactive)	> 100 µM (inactive)	> 100 µM (inactive)	> 100 µM (inactive)	> 100 µM (inactive)		> 100 µM (inactive)	> 100 µM (inactive)	> 100 µM (inactive)	> 100 µM (inactive)	> 100 µM (inactive)	> 100 µM (inactive)	> 100 µM (inactive)	> 100 µM (inactive)	> 100 µM (inactive)
Cn1/c(=N\N=C(\CNCCO)[C@@H](O)[C@@H]2OC(c3ccccc3)OC[C@H]2O)sc2ccccc21 (stereo partly specified)	16.9 µM (inactive)	18 µM (inactive)	17.3 µM (inactive)	15.2 µM (inactive)	18.2 µM (inactive)	19.6 µM (inactive)	15.4 µM (inactive)	19 µM (inactive)	16 µM (inactive)	16.7 µM (inactive)	14.8 µM (inactive)	18.5 µM (inactive)	16.1 µM (inactive)	18.7 µM (inactive)	19.2 µM (inactive)	14.9 µM (inactive)	23.9 µM (inactive)	17.1 µM (inactive)	17.5 µM (inactive)	
O=C(Nc1ccc2ncccc2c1)c1cc2c(cc1Cl)Sc1nccn1S2(=O)=O	16.6 µM (inactive)	13.6 µM (inactive)	18.4 µM (inactive)	20.4 µM (inactive)	20.9 µM (inactive)	20.1 µM (inactive)	19.1 µM (inactive)	4.36 µM (inactive)	12.8 µM (inactive)	6.12 µM (inactive)	31.2 µM (inactive)	20.4 µM (inactive)	15.6 µM (inactive)	15.9 µM (inactive)	16.5 µM (inactive)	15.3 µM (inactive)	26.2 µM (inactive)	6.4 µM (inactive)	20 µM (inactive)	
Cc1cc(C)nc(NC(P(=O)(O)O)P(=O)(O)O)n1	> 100 µM (inactive)	> 100 µM (inactive)		> 100 µM (inactive)	> 100 µM (inactive)	> 100 µM (inactive)	> 100 µM (inactive)		> 100 µM (inactive)	> 100 µM (inactive)	> 100 µM (inactive)	> 100 µM (inactive)	> 100 µM (inactive)	> 100 µM (inactive)	> 100 µM (inactive)	> 100 µM (inactive)		> 100 µM (inactive)	> 100 µM (inactive)	
O=C(Nc1ccccc1)OCCN=c1c2ccccc2ccc2ccccc12	15 µM (inactive)	32.7 µM (inactive)	23.7 µM (inactive)	24.9 µM (inactive)	41.5 µM (inactive)	15.8 µM (inactive)	24.9 µM (inactive)	18.2 µM (inactive)	16.9 µM (inactive)	> 10 µM (inactive)	11.5 µM (inactive)	31.4 µM (inactive)	23.8 µM (inactive)	14 µM (inactive)	26.5 µM (inactive)	14.1 µM (inactive)	25.8 µM (inactive)	19.1 µM (inactive)	19.8 µM (inactive)	
COC(=O)c1c(C)cccc1C1CN=NC12Cc1cc(C)c(C)cc1C2=O (stereo unspecified)	69.5 µM (inactive)	62.4 µM (inactive)	> 100 µM (inactive)	65.9 µM (inactive)	> 100 µM (inactive)	27.2 µM (inactive)	59.6 µM (inactive)		34.8 µM (inactive)	33.6 µM (inactive)	96.4 µM (inactive)	51.4 µM (inactive)	68.4 µM (inactive)	48.5 µM (inactive)	78.7 µM (inactive)	17.1 µM (inactive)	52 µM (inactive)	30.5 µM (inactive)	> 100 µM (inactive)	
Nc1ccc(C(=O)O)cc1 [AMINOBENZOIC ACID]		> 100 µM (inactive)	> 100 µM (inactive)	28.1 µM (inactive)	> 100 µM (inactive)	> 100 µM (inactive)	> 100 µM (inactive)	> 100 µM (inactive)	> 100 µM (inactive)	> 100 µM (inactive)	> 100 µM (inactive)	> 100 µM (inactive)		> 100 µM (inactive)	> 100 µM (inactive)	> 100 µM (inactive)	> 100 µM (inactive)	> 100 µM (inactive)	> 100 µM (inactive)	
CS(=O)(=O)OCCCSCCSCCCOS(C)(=O)=O	> 100 µM (inactive)	> 100 µM (inactive)	> 100 µM (inactive)	> 100 µM (inactive)	> 100 µM (inactive)	> 100 µM (inactive)	> 100 µM (inactive)	> 100 µM (inactive)	> 100 µM (inactive)	> 100 µM (inactive)		> 100 µM (inactive)		> 100 µM (inactive)	> 100 µM (inactive)	> 100 µM (inactive)	> 100 µM (inactive)	> 100 µM (inactive)	> 100 µM (inactive)	
COc1ccc(/C=C(\C#N)c2nc3ccccc3c(=O)[nH]2)cc1	18.4 µM (inactive)	13.9 µM (inactive)	> 100 µM (inactive)	4.84 µM (inactive)	> 100 µM (inactive)	68.7 µM (inactive)	59.6 µM (inactive)	39.4 µM (inactive)	5.22 µM (inactive)	34.4 µM (inactive)	15.1 µM (inactive)	23.3 µM (inactive)	15.5 µM (inactive)	20.5 µM (inactive)	10.6 µM (inactive)	19.5 µM (inactive)	20.3 µM (inactive)	51.5 µM (inactive)	12.6 µM (inactive)	
CN(C)C1(N(C)C)Oc2c(c(=O)n(C)c(=O)n2C)C(c2ccccc2Br)C1(F)F (stereo unspecified)	> 100 µM (inactive)	> 100 µM (inactive)	> 100 µM (inactive)	> 100 µM (inactive)	> 100 µM (inactive)	> 100 µM (inactive)	> 100 µM (inactive)		> 100 µM (inactive)	> 100 µM (inactive)		> 100 µM (inactive)	> 100 µM (inactive)	> 100 µM (inactive)		> 100 µM (inactive)	> 100 µM (inactive)	> 100 µM (inactive)	> 100 µM (inactive)	> 100 µM (inactive)
Cc1cn(C(=O)NC23CC4CC(CC(C4)C2)C3)c(=O)[nH]c1=O	21.8 µM (inactive)	37.2 µM (inactive)	67.5 µM (inactive)	24.7 µM (inactive)	> 100 µM (inactive)	45.1 µM (inactive)	23.9 µM (inactive)		34.4 µM (inactive)	31.6 µM (inactive)	32.7 µM (inactive)	32.8 µM (inactive)	21.6 µM (inactive)	36.5 µM (inactive)	32.7 µM (inactive)	38.3 µM (inactive)	38.7 µM (inactive)	64.4 µM (inactive)	46.2 µM (inactive)	
C=C1C2CC3CCC2C(OC(=O)c2ccccc2C(=O)O)C13 (stereo unspecified)	> 100 µM (inactive)	> 100 µM (inactive)	> 100 µM (inactive)	> 100 µM (inactive)	> 100 µM (inactive)	> 100 µM (inactive)	> 100 µM (inactive)	> 100 µM (inactive)	> 100 µM (inactive)		> 100 µM (inactive)	> 100 µM (inactive)	> 100 µM (inactive)	> 100 µM (inactive)	> 100 µM (inactive)	> 100 µM (inactive)	> 100 µM (inactive)	> 100 µM (inactive)	> 100 µM (inactive)	> 100 µM (inactive)
CCSc1nc2sc(C)c(C)c2c(=O)n1-c1ccc(C(=O)O)cc1	> 100 µM (inactive)	> 100 µM (inactive)	54.5 µM (inactive)		> 100 µM (inactive)	98.4 µM (inactive)	54 µM (inactive)	41.4 µM (inactive)	22.7 µM (inactive)			> 100 µM (inactive)	25.5 µM (inactive)	40.9 µM (inactive)	72.4 µM (inactive)	49 µM (inactive)	71.8 µM (inactive)	54.8 µM (inactive)	18.8 µM (inactive)	29.9 µM (inactive)
